Data: paper PMC8519022, “Diarylethene‐Based Photoswitchable Inhibitors of Serine Proteases” (Angewandte Chemie (International Ed. in English), 2021)
*1 amine or outer side, *2 acyl side, *3 side chain or, on linkers, in order; H or OH if unused. Where a SMILES comes first, the peptide text is derived from it. Bridges are numbered along the chain shown (N, C = ends). Triazole bridges read from a SMILES are 1,4-linked. [ ]: non-standard residue; d: D form. X1 = Cc1sc(C(=O)[C@@H]2CCCN2[*:2])cc1C1=C(c2cc(C(=O)[*:1])sc2C)CCC1; Orn(N3) = [N-]=[N+]=NCCC[C@H](N)C(=O)O; Aha = [N-]=[N+]=NCC[C@H](N)C(=O)O; hCys = N[C@@H](CCS)C(=O)O; Pra = C#CC[C@H](N)C(=O)O

How the values were obtained:
[1] = molecular target: T1, Bos taurus trypsin 1 (T1) (Bos taurus, UniProt P00760); assay: Trypsin inhibition, Ki by Lineweaver-Burk analysis; settings: for K i (closed) /K i (open): ratio of ring-closed to ring-open isomer, T1;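 on all read-outs here: trypsin activity followed by spectrophotometric hydrolysis kinetics of the chromogenic substrate BAPNA in Tris buffer, Ki obtained from double-reciprocal Lineweaver–Burk plots at several substrate concentrations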
T1 sequence (P00760 24-246): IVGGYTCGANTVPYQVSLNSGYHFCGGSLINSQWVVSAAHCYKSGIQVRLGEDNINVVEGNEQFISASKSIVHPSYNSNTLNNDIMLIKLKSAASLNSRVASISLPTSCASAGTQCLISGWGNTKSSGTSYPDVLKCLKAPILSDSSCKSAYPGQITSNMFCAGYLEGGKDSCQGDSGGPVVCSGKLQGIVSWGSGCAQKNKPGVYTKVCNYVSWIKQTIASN
Experimental: Protease inhibition assays
The inhibition of trypsin and α-chymotrypsin was investigated by two methods. First, the inhibition was determined at a fixed enzyme and substrate concentration, whereas the inhibitor concentration varied. By plotting the protease activity against an inhibitor’s concentration, IC50 (the half-maximal inhibitory concentration) was determined.
Lineweaver–Burk analysis (see below), the Ki values for all peptide inhibitors were determined with high accuracy.
All measurements were performed with p-nitroaniline-based chromogenic substrates (λabs = 405 nm) in 96-well microtiter plates using
EpochTM 2 microplate spectrophotometer. For trypsin measurements the Tris buffer (50 mM Tris-HCl, 25 mM CaCl2, 0.005% Tween®
For the measurements, a fresh 0.92 µM trypsin solution was prepared from the storage aliquot and kept on ice.
A stock solution of the substrate BAPNA (Nα-Benzoyl-DL-arginine 4-nitroanilide hydrochloride) at the concentration of 50 mM in
aqueous dimethyl sulfoxide (DMSO) (100 mg of BAPNA in 4.6 mL of DMSO:water mixture 1:1) was pre pared and stored at RT.
peptide solutions at the concentration of 100 µM, which was further diluted to 10, 1, or 0.1 µM if required, were prepared in Milli-Q®
deionized ultrapure water.
For the determination of IC50, a double dilution series of inhibit ors were prepared in a 96 -well plate (12 concentrations, two repeats
for each concentration, 200 µL of Tris buffer in each well). Subsequently, a trypsin solution (20 µL, 150 nM) was added to ea ch well
with the tested peptide and to the control row. Soluti ons in each well were intensely mixed using a multichannel pipette (from lower
concentration to higher). After a pre -incubation period (5 min), the substrate BAPNA was added to each well (20 µL, 25 mM).
solutions were thoroughly mixed with the multicha nnel pipette, and the kinetics of substrate hydrolysis was recorded with an interval
of 1 min between measurements over 20 min. The total volume in each well was 240 µL, final trypsin and BAPNA concentrations
were 12.5 nM and 2.08 mM, respectively. The mea n values of the two repeats of the slope of absorption vs. time curves were
calculated. The activities at different inhibitor concentrations were then calculated by taking the control curves’ slope val ues (no
inhibitor) as the 100% enzyme activity. The inh ibition activity IC 50 against α-chymotrypsin (α-chymotrypsin from bovine pancreas
type II) was measured in the same way except that a different substrate, Ac-EAPF-pNA (Ac-Glu-Ala-Pro-Phe-pNA), was used (20
Inhibitory constants Ki were determined by Lineweaver-Burk (LWB) double-reciprocal analysis according to a published protocol.[S5]
Briefly, a fresh inhibitor/enzyme mixture was prepared in a glass vial and distributed to 2x6 wells (200 µL in each well, enzyme
concentration after dilution 12 nM). An enzyme without an inhibitor was added to the control wells. Aliquots of varying substrate stock
solutions were added with a multichannel pipette to each well. For trypsin inhibition experiments, BAPNA (20 µL per well of 20, 22.7,
26, 29.8, 34, 40 mM) and for α-chymotrypsin Ac-EAPF-pNA (20 µL per well of 16, 12.48, 10, 8, 6.4, 5.44 mM) were used, respectively.
Well contents were thoroughly mixed using a multichannel pipette, and a plate reader was used to monitor the hydrolysis kinetics
(sampling interval of 1 min over 20 min).

trypsin = molecular target: T2, trypsin (Bos taurus, UniProt P00760); settings: for k H [M^−1 s^−1] (closed): pH 8.2
T2 sequence (P00760 24-246): T1 sequence (P00760 24-246)
Experimental: Analysis of the proteolytic stability
Proteolytic stability of the peptides was characterized by determining hydrolysis rates (kH) by the action of trypsin in a 50 mM Tris–
HCl buffer, pH 8.2, supplemented with 25 mM CaCl2 and 0.005% Tween®20 at 22°C. The peptides at a concentration of 50 μM were
mixed with trypsin (0.5 μM) in a 2 mL total volume. At selected time intervals, 70 μL samples of the mixture were taken, quenched
by addition 130 μL 2% aqueous formic acid, and immediately analyzed by analytical HPLC. The kH values were calculated from the
time-dependent data assuming zero-order kinetics (zero-order kinetics applies due to the high substrate/enzyme ratio of 100 to 1).
For the fitting the linear part of the hydrolysis curve was taken excluding the last time point in which the entire peptide inhibitor was
analogues could hydrolyze at two positions: at the Lys (P1 position) of the inhibitory loop and after the stabilizing loop’s arginine
residue (P4 position).[S6] The ultimate product (i.e., cleaved at both positions) had, therefore, a MALDI-TOF-MS detectable mass
The identity of each peak was confirmed by MALDI -TOF-MS. Detection – 220 nm, hydrolysis time is indicated at each chromatogram.

[2] = Photostationary state under UV irradiation / photoconversion; format: physicochemical; settings: deoxygenated water, 22 °C, continuous UV irradiation 320-400 nm; values with * by RP-HPLC
Experimental: Table S3 Photostationary states (PSS) for the studied peptides in deoxygenated water at 22 °C determined as the maximal conversion of the ring-open form to
ring-closed form under continuous UV irradiation (spectral range of 320-400 nm).
* As was determined by RP-HPLC analysis. […]

## CC[C@H](C)[C@@H]1NC(=O)[C@@H]2CCCN2C(=O)[C@@H]2CCCN2C(=O)[C@H]([C@@H](C)CC)NC(=O)[C@H](CO)NC(=O)[C@H](CCCCN)NC(=O)[C@H]([C@@H](C)O)NC(=O)[C@@H]2CSSC[C@H](NC1=O)C(=O)N[C@@H](CCCNC(=N)N)C(=O)N1CCC[C@H]1C(=O)c1cc(c(C)s1)C1=C(CCC1)c1cc(sc1C)C(=O)N[C@@H](Cc1ccccc1)C(=O)N2 [Peptide S1i] (FCTKSIPPICR; disulfide 2-10; linker N-C via X1)
[1]; K i [nM] (open)
  Ki: 13.4 ± 1.4 nM

## CC[C@H](C)[C@@H]1NC(=O)[C@@H]2CCCN2C(=O)[C@@H]2CCCN2C(=O)[C@H]([C@@H](C)CC)NC(=O)[C@H](CO)NC(=O)[C@H](CCCCN)NC(=O)[C@H]([C@@H](C)O)NC(=O)[C@@H]2CSSC[C@H](NC1=O)C(=O)N[C@@H](Cc1ccccc1)C(=O)N1CCC[C@H]1C(=O)c1cc(c(C)s1)C1=C(CCC1)c1cc(sc1C)C(=O)N[C@@H](CCCNC(=N)N)C(=O)N2 [Peptide S1n] (RCTKSIPPICF; disulfide 2-10; linker N-C via X1)
[1]; K i [nM] (open)
  Ki: 4.9 ± 0.3 nM

## CC[C@H](C)[C@@H]1NC(=O)[C@@H]2CCCN2C(=O)[C@@H]2CCCN2C(=O)[C@H]([C@@H](C)CC)NC(=O)[C@H](CO)NC(=O)[C@H](CCCCN)NC(=O)[C@H]([C@@H](C)O)NC(=O)[C@H](C)NC(=O)c2cc(c(C)s2)C2=C(CCC2)c2cc(sc2C)C(=O)[C@@H]2CCCN2C(=O)[C@H](C)NC1=O [Peptide S3] (ATKSIPPIA; linker N-C via X1)
[1]; K i [nM] (open)
  Ki: 101 ± 9 nM

## CC[C@H](C)[C@@H]1NC(=O)[C@@H]2CCCN2C(=O)[C@@H]2CCCN2C(=O)[C@H]([C@@H](C)CC)NC(=O)[C@H](CO)NC(=O)[C@H](CCCCN)NC(=O)[C@H]([C@@H](C)O)NC(=O)c2cc(c(C)s2)C2=C(CCC2)c2cc(sc2C)C(=O)[C@@H]2CCCN2C1=O [Peptide S4] (TKSIPPI; linker N-C via X1)
[1]; K i [nM] (open)
  Ki: 22 ± 3 nM

## CC[C@H](C)[C@@H]1NC(=O)[C@@H]2CCCN2C(=O)[C@@H]2CCCN2C(=O)[C@H]([C@@H](C)CC)NC(=O)[C@H](CO)NC(=O)[C@H](CCCCN)NC(=O)[C@H]([C@@H](C)O)NC(=O)[C@@H]2CSSCC[C@H](NC1=O)C(=O)N[C@@H](CCCNC(=N)N)C(=O)N1CCC[C@H]1C(=O)c1cc(c(C)s1)C1=C(CCC1)c1cc(sc1C)C(=O)N[C@@H](Cc1ccccc1)C(=O)N2 [Peptide S5i] (FCTKSIPPI[hCys]R; disulfide 2-10; linker N-C via X1)
[1]; K i [nM] (closed)
  Ki: 182 ± 16 nM
[1]; K i [nM] (open)
  Ki: 102 ± 14 nM
trypsin
  k H (closed) /k H (open): 1.7
  k H [M^−1 s^−1] (closed): 5.0±0.8×10^−3 M^−1 s^−1

## CC[C@H](C)[C@@H]1NC(=O)[C@@H]2CCCN2C(=O)[C@@H]2CCCN2C(=O)[C@H]([C@@H](C)CC)NC(=O)[C@H](CO)NC(=O)[C@H](CCCCN)NC(=O)[C@H]([C@@H](C)O)NC(=O)[C@@H]2CSSCC[C@H](NC1=O)C(=O)N[C@@H](Cc1ccccc1)C(=O)N1CCC[C@H]1C(=O)c1cc(c(C)s1)C1=C(CCC1)c1cc(sc1C)C(=O)N[C@@H](CCCNC(=N)N)C(=O)N2 [Peptide S5n] (RCTKSIPPI[hCys]F; disulfide 2-10; linker N-C via X1)
[1]; K i [nM] (closed)
  Ki: 231 ± 14 nM
[1]; K i [nM] (open)
  Ki: 95 ± 6 nM
trypsin
  k H (closed) /k H (open): 13.6
  k H [M^−1 s^−1] (closed): 3.4±0.5×10^−2 M^−1 s^−1

## CC[C@H](C)[C@@H]1NC(=O)[C@@H]2CCCN2C(=O)[C@@H]2CCCN2C(=O)[C@H]([C@@H](C)CC)NC(=O)[C@H](CO)NC(=O)[C@H](CCCCN)NC(=O)[C@H]([C@@H](C)O)NC(=O)[C@@H]2Cc3cn(nn3)CC[C@H](NC1=O)C(=O)N[C@@H](CCCNC(=N)N)C(=O)N1CCC[C@H]1C(=O)c1cc(c(C)s1)C1=C(CCC1)c1cc(sc1C)C(=O)N[C@@H](Cc1ccccc1)C(=O)N2 [Peptide S6i] (F[Pra]TKSIPPI[Aha]R; triazole 2-10; linker N-C via X1)
[1]; K i [nM] (open)
  Ki: 441 ± 43 nM
[1]
  K i (closed) /K i (open): 17.5
trypsin
  k H (closed) /k H (open): 5.8
  k H [M^−1 s^−1] (closed): 1.1±0.2×10^−1 M^−1 s^−1
[2]
  PSS, % (maximal conversion of ring-open to ring-closed form): 39.6%

## CC[C@H](C)[C@@H]1NC(=O)[C@@H]2CCCN2C(=O)[C@@H]2CCCN2C(=O)[C@H]([C@@H](C)CC)NC(=O)[C@H](CO)NC(=O)[C@H](CCCCN)NC(=O)[C@H]([C@@H](C)O)NC(=O)[C@@H]2Cc3cn(nn3)CC[C@H](NC1=O)C(=O)N[C@@H](Cc1ccccc1)C(=O)N1CCC[C@H]1C(=O)c1cc(c(C)s1)C1=C(CCC1)c1cc(sc1C)C(=O)N[C@@H](CCCNC(=N)N)C(=O)N2 [Peptide S6n] (R[Pra]TKSIPPI[Aha]F; triazole 2-10; linker N-C via X1)
[1]; K i [nM] (open)
  Ki: 135 ± 8 nM
[1]
  K i (closed) /K i (open): 8.3
trypsin
  k H (closed) /k H (open): 3.7
  k H [M^−1 s^−1] (closed): 2.5±0.8×10^−2 M^−1 s^−1
[2]
  PSS, % (maximal conversion of ring-open to ring-closed form): 46.6%

## CC[C@H](C)[C@@H]1NC(=O)[C@@H]2CCCN2C(=O)[C@@H]2CCCN2C(=O)[C@H]([C@@H](C)CC)NC(=O)[C@H](CO)NC(=O)[C@H](CCCCN)NC(=O)[C@H]([C@@H](C)O)NC(=O)[C@@H]2Cc3cn(nn3)CCC[C@H](NC1=O)C(=O)N[C@@H](CCCNC(=N)N)C(=O)N1CCC[C@H]1C(=O)c1cc(c(C)s1)C1=C(CCC1)c1cc(sc1C)C(=O)N[C@@H](Cc1ccccc1)C(=O)N2 [Peptide S7i] (F[Pra]TKSIPPI[Orn(N3)]R; triazole 2-10; linker N-C via X1)
[1]; K i [nM] (closed)
  Ki: 7220 ± 360 nM
[1]; K i [nM] (open)
  Ki: 263 ± 30 nM
trypsin
  k H (closed) /k H (open): 73
  k H [M^−1 s^−1] (closed): 5.5±1×10^−1 M^−1 s^−1

## CC[C@H](C)[C@@H]1NC(=O)[C@@H]2CCCN2C(=O)[C@@H]2CCCN2C(=O)[C@H]([C@@H](C)CC)NC(=O)[C@H](CO)NC(=O)[C@H](CCCCN)NC(=O)[C@H]([C@@H](C)O)NC(=O)[C@@H]2Cc3cn(nn3)CCC[C@H](NC1=O)C(=O)N[C@@H](Cc1ccccc1)C(=O)N1CCC[C@H]1C(=O)c1cc(c(C)s1)C1=C(CCC1)c1cc(sc1C)C(=O)N[C@@H](CCCNC(=N)N)C(=O)N2 [Peptide S7n] (R[Pra]TKSIPPI[Orn(N3)]F; triazole 2-10; linker N-C via X1)
[1]; K i [nM] (closed)
  Ki: 2200 ± 214 nM
[1]; K i [nM] (open)
  Ki: 63.4 ± 4.4 nM
trypsin
  k H (closed) /k H (open): 30.5
  k H [M^−1 s^−1] (closed): 6.1±1.2×10^−2 M^−1 s^−1

## CC[C@H](C)[C@@H]1NC(=O)[C@@H]2CCCN2C(=O)[C@@H]2CCCN2C(=O)[C@H]([C@@H](C)CC)NC(=O)[C@H](CO)NC(=O)[C@H](CCCCN)NC(=O)[C@H]([C@@H](C)O)NC(=O)[C@@H]2CSSC[C@H](NC1=O)C(=O)N[C@@H](Cc1ccccc1)C(=O)N1CCC[C@H]1C(=O)c1cc(c(C)s1)C1=C(CCC1)c1cc(sc1C)C(=O)N[C@@H](C(C)C)C(=O)N[C@@H](CCCNC(=N)N)C(=O)N2 [Peptide S8n] (VRCTKSIPPICF; disulfide 3-11; linker N-C via X1)
[1]; K i [nM] (closed)
  Ki: 125 ± 8 nM
[1]; K i [nM] (open)
  Ki: 5.2 ± 0.4 nM
trypsin
  k H (closed) /k H (open): 4.1
  k H [M^−1 s^−1] (closed): 5.3±1.4×10^−4 M^−1 s^−1

## CC[C@H](C)[C@@H]1NC(=O)[C@@H]2CCCN2C(=O)[C@@H]2CCCN2C(=O)[C@H]([C@@H](C)CC)NC(=O)[C@H](CO)NC(=O)[C@H](CCCCN)NC(=O)[C@H]([C@@H](C)O)NC(=O)[C@@H]2CSSC[C@H](NC1=O)C(=O)N[C@@H](Cc1ccccc1)C(=O)N[C@@H](CC(C)C)C(=O)N1CCC[C@H]1C(=O)c1cc(c(C)s1)C1=C(CCC1)c1cc(sc1C)C(=O)N[C@@H](CCCNC(=N)N)C(=O)N2 [Peptide S9n] (RCTKSIPPICFL; disulfide 2-10; linker N-C via X1)
[1]; K i [nM] (closed)
  Ki: 55 ± 3.8 nM
[1]; K i [nM] (open)
  Ki: 8.3 ± 0.6 nM
trypsin
  k H (closed) /k H (open): 8.7
  k H [M^−1 s^−1] (closed): 1.3±0.1×10^−3 M^−1 s^−1

## CC[C@H](C)[C@@H]1NC(=O)[C@@H]2CCCN2C(=O)[C@@H]2CCCN2C(=O)[C@H]([C@@H](C)CC)NC(=O)[C@H](CO)NC(=O)[C@H](CCCCN)NC(=O)[C@H]([C@@H](C)O)NC(=O)[C@@H]2Cc3cn(nn3)CC[C@H](NC1=O)C(=O)N[C@@H](CCCNC(=N)N)C(=O)N[C@@H](CC(C)C)C(=O)N1CCC[C@H]1C(=O)c1cc(c(C)s1)C1=C(CCC1)c1cc(sc1C)C(=O)N[C@@H](C(C)C)C(=O)N[C@@H](Cc1ccccc1)C(=O)N2 [Peptide S11i] (VF[Pra]TKSIPPI[Aha]RL; triazole 3-11; linker N-C via X1)
[1]; K i [nM] (open)
  Ki: 1720 ± 130 nM
[1]
  K i (closed) /K i (open): 3.1
trypsin
  k H (closed) /k H (open): 3.3
  k H [M^−1 s^−1] (closed): 9.1±1×10^−2 M^−1 s^−1
[2]
  PSS, % (maximal conversion of ring-open to ring-closed form): 80.2%

## CC[C@H](C)[C@@H]1NC(=O)[C@@H]2CCCN2C(=O)[C@@H]2CCCN2C(=O)[C@H]([C@@H](C)CC)NC(=O)[C@H](CO)NC(=O)[C@H](CCCCN)NC(=O)[C@H]([C@@H](C)O)NC(=O)[C@@H]2Cc3cn(nn3)CCC[C@H](NC1=O)C(=O)N[C@@H](CCCNC(=N)N)C(=O)N[C@@H](CC(C)C)C(=O)N1CCC[C@H]1C(=O)c1cc(c(C)s1)C1=C(CCC1)c1cc(sc1C)C(=O)N[C@@H](C(C)C)C(=O)N[C@@H](Cc1ccccc1)C(=O)N2 [Peptide S12i] (VF[Pra]TKSIPPI[Orn(N3)]RL; triazole 3-11; linker N-C via X1)
[1]; K i [nM] (open)
  Ki: 2440 ± 215 nM
trypsin
  k H (closed) /k H (open): 3.0
  k H [M^−1 s^−1] (closed): 4.2±0.4×10^−2 M^−1 s^−1
